Measurements taken from article PMC10077549 (ACS Omega, 2023).

Target: T1, soybean lipoxygenase LOX-1 (Glycine max, UniProt P08170)
T1 sequence (P08170 1-839): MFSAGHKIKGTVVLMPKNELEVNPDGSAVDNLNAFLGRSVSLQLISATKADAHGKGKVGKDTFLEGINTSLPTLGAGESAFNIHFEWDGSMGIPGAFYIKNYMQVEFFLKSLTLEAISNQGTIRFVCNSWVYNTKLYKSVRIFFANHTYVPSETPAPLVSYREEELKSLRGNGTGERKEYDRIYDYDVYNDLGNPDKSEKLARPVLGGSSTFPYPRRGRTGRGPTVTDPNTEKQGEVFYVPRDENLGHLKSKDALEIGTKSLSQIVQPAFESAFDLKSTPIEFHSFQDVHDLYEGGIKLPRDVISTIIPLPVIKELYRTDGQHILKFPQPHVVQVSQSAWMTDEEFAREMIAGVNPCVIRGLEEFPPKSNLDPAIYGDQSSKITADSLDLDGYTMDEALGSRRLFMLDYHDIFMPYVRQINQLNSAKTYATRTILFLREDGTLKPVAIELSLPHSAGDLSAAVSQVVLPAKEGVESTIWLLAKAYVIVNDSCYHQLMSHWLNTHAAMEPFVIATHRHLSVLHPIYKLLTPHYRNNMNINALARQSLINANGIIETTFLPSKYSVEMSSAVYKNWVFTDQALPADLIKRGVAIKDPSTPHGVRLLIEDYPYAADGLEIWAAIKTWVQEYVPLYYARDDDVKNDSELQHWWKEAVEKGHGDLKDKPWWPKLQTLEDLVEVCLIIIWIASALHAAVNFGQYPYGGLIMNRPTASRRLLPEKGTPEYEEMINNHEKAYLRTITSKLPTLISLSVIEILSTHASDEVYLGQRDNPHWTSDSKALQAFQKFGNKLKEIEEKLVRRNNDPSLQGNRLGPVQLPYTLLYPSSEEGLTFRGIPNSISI
Type: biochemical

NNC(=S)N/N=C/c1ccccc1 [DKI5, (E)-N′-benzylidenehydrazinecarbothiohydrazide]
IC50: 22.5 µM

SC1=NC(c2ccccc2)=CC(c2ccccc2)N1 (centres unmarked) [KKII5, 4,6-diphenyl-3,4-dihydropyrimidine-2(1H)-thione]
IC50: 19 µM
